Values after ≈ are worked out from the molar mass of the structure shown.
Experiments:
[1] = system: Human osteoblasts (KK-3, 18PDL); assay: bone formation activity (Ca, P and alkaline phosphatase in human osteoblasts); type: cell-based; conditions: 14 days
Procedure: Measurement of bone formation activity
Human osteoblasts (KK-3, 18PDL) were cultured in an α-MEM containing 10% fetal calf serum. After the growth become stationary, the compound was added in a given concentration in the presence of 2 mM α-glycerophosphate and treated for 14 days. The cell phase was washed with physiological saline, and the alkaline phosphatase activity (ALP) was measured through the absorption of OD415. Then, calcium (Ca) and phosphorus (P) were extracted with a 2N hydrochloric acid and quantitatively determined.

L1210 tumor cells = assay: anticancer activity (growth of L1210 tumor cells, trypan blue staining of surviving cells); type: cell-based; conditions: Mus musculus, 48 h, 2.5×10^4 cells/ml, grown for 2 days
Procedure: Measurement of anticancer activity
Tumor cells were grown in an RPMI 1640 medium containing of 10% fetal calf serum.
The compound was dissolved in 99.5% ethanol, adjusted before use so that the final concentration of ethanol was 0.1% or less, and added to the medium.
The control was 0.1% ethanol, and L1210 tumor cells were inoculated in the medium in a concentration of 2.5×10^4 cells/ml and grown for 2 days. The number of surviving cells were measured by trypan blue staining.

[2] = Table 6, 1.0 × 10^-6, control 0.550 ± 0.040
[3] = Table 6, 1.0 × 10^-6, control 11.00 ± 1.73
[4] = Table 6, 2.5 × 10^-7 M, control 0.550 ± 0.040
[5] = Table 6, 2.5 × 10^-7 M, control 11.00 ± 1.73
[6] = Table 6, 2.5 × 10^-7 M, control 20.00 ± 1.73
[7] = Table 9, 1.0 × 10^-6 M, control 1.15 ± 0.19
[8] = Table 9, 1.0 × 10^-6 M, control 2.17 ± 2.56
[9] = Table 9, 1.0 × 10^-6 M, control 3.83 ± 1.72
[10] = Table 9, 3.3 × 10^-6, control 1.15 ± 0.19
[11] = Table 9, 3.3 × 10^-6, control 2.17 ± 2.56

COC(=O)c1ccc(/C=C2/C(=O)C=C(C)C2(O)CCCCOc2ccccc2)cc1 (stereo not shown) [drawing 218]
Ca ([1]; Table 8, 10^-4 M, control 0.33 ± 0.58): 8.133 ± 3.06 μg/dish
ALP ([1]; Table 8, 10^-4 M, control 1.684 ± 0.068): 0.697 OD415 /dish
P ([1]; Table 8, 10^-4 M, control 7.67 ± 0.58): 50.33 ± 1.53 μg/dish
Ca ([1]; Table 8, 10^-5 M, control 0.33 ± 0.58): 1.00 ± 0.0 μg/dish
ALP ([1]; Table 8, 10^-5 M, control 1.684 ± 0.068): 1.538 ± 0.028 OD415 /dish
P ([1]; Table 8, 10^-5 M, control 7.67 ± 0.58): 8.33 ± 1.53 μg/dish

CN(C)c1ccc(/C=C2/C(=O)C(Cl)=CC2(O)CCCCOc2ccccc2)cc1 (stereo not shown) [drawing 217]
P ([1]; Table 7, 10^-6 M, control 0.17 ± 0.29): 1.72 ± 0.05 μg/dish
Ca ([1]; Table 7, 10^-6 M, control 0.33 ± 0.29): 23.50 ± 3.77 μg/dish
ALP ([1]; Table 7, 10^-6 M, control 0.826 ± 0.006): 0.503 OD415 /dish
P ([1]; Table 7, 10^-7 M, control 0.17 ± 0.29): 0.33 ± 0.29 μg/dish
Ca ([1]; Table 7, 10^-7 M, control 0.33 ± 0.29): 0.0 ± 0 μg/dish
ALP ([1]; Table 7, 10^-7 M, control 0.826 ± 0.006): 0.796 ± 0.047 OD415 /dish

COC(=O)c1ccc(/C=C2/C(=O)C(Cl)=CC2(O)CCCCOc2ccccc2)cc1 (stereo not shown) [drawing 209]
IC50 (L1210 tumor cells): 0.004 µg/mL (≈ 0.00937 µM)

COC(=O)c1ccc(/C=C2/C(=O)C=CC2(O)CCCCOc2ccccc2)cc1 (stereo not shown) [drawing 215]
ALP [1, 2]: 0.488 OD415 /dish
Ca [1, 3]: 47.00 ± 1.00 μg/dish
ALP [1, 4]: 0.572 ± 0.028 OD415 /dish
Ca [1, 5]: 22.67 ± 3.51 μg/dish
P [1, 6]: 28.33 ± 2.52 μg/dish

COC(=O)c1ccc(/C=C2/C(=O)C=C[C@@]2(O)CCCCOc2ccccc2)cc1 [drawing 220]
ALP [1, 7]: 0.04 ± 0.01 OD415 /dish
Ca [1, 8]: 312.17 ± 12.30 μg/dish
P [1, 9]: 170.33 ± 11.60 μg/dish
ALP [1, 10]: 0.03 OD415 /dish
Ca [1, 11]: 328.00 ± 15.90 μg/dish

CN(C)c1ccc(/C=C2/C(=O)C(Cl)=CC2(O)CCCCOc2ccccc2)cc1 (stereo not shown) [drawing 212]
IC50 (L1210 tumor cells): 0.062 µg/mL (≈ 0.151 µM)

COC(=O)c1ccc(/C=C2/C(=O)C=C[C@]2(O)CCCCOc2ccccc2)cc1 [drawing 219]
ALP [1, 7]: 0.74 ± 0.06 OD415 /dish
Ca [1, 8]: 18.00 ± 8.00 μg/dish
P [1, 9]: 13.00 ± 4.69 μg/dish
ALP [1, 10]: 1.79 OD415 /dish
Ca [1, 11]: 318.50 ± 12.50 μg/dish

COC(=O)c1ccc(/C=C2/C(=O)C=C(C)C2(O)CCCCOc2ccccc2)cc1 (stereo not shown) [drawing 208]
IC50 (L1210 tumor cells): 10.8 µg/mL (≈ 26.5 µM)

COC(=O)c1ccc(/C=C2/C(=O)C=C[C@]2(O)CCCCOc2ccccc2)cc1 [drawing 214]
IC50 (L1210 tumor cells): 0.026 µg/mL (≈ 0.0663 µM)

COC(=O)c1ccc(/C=C2/C(=O)C(Cl)=CC2(O)CCCCOc2ccccc2)cc1 (stereo not shown) [drawing 216]
ALP [1, 2]: 0.0 OD415 /dish
Ca [1, 3]: 124.50 ± 2.12 μg/dish
ALP [1, 4]: 0.484 ± 0.078 OD415 /dish
Ca [1, 5]: 37.00 ± 1.00 μg/dish
P [1, 6]: 36.00 ± 1.00 μg/dish

CN(C)c1ccc(C=C2C(=O)C=CC2(O)CCCCOc2ccccc2)cc1 (stereo not shown)
IC50 (L1210 tumor cells): 0.378 µg/mL (≈ 1 µM)

COC(=O)c1ccc(/C=C2/C(=O)C=C[C@@]2(O)CCCCOc2ccccc2)cc1 [drawing 213]
IC50 (L1210 tumor cells): 0.01 µg/mL (≈ 0.0255 µM)

O=C1C=CC(O)(CCCCOc2ccccc2)/C1=C\c1ccncc1 (stereo not shown)
IC50 (L1210 tumor cells): 0.021 µg/mL (≈ 0.0626 µM)

COC(=O)c1ccc(/C=C2/C(=O)C=CC2(O)CCCCOc2ccccc2)cc1 (stereo not shown) [drawing 207]
IC50 (L1210 tumor cells): 0.014 µg/mL (≈ 0.0357 µM)

— patent publication US5675031A, “4-hydroxy-2-cyclopentenone derivatives and anticancer agent and bone formation accelerator containing the same” (Teijin Limited, priority 1992, dated 1997)
